Data reported in the CheMixHub viscosity set.

Assay: xn = mol fraction of the nth substance listed

Nc1ccccc1 + CCCCO
Conditions | viscosity [mPa·s]
298.15 K, 101 kPa, x1 = 0.09983 | 2.368
298.15 K, 101 kPa, x1 = 0.1935 | 2.278
298.15 K, 101 kPa, x1 = 0.3051 | 2.249
298.15 K, 101 kPa, x1 = 0.4055 | 2.287
298.15 K, 101 kPa, x1 = 0.4837 | 2.343
298.15 K, 101 kPa, x1 = 0.6005 | 2.474
298.15 K, 101 kPa, x1 = 0.6946 | 2.637
298.15 K, 101 kPa, x1 = 0.8028 | 2.899
298.15 K, 101 kPa, x1 = 0.8996 | 3.231
303 K, 101.33 kPa, x1 = 0.1 | 2.031
303 K, 101.33 kPa, x1 = 0.2 | 1.975
303 K, 101.33 kPa, x1 = 0.3 | 1.951
303 K, 101.33 kPa, x1 = 0.4 | 1.938
303 K, 101.33 kPa, x1 = 0.5 | 1.962
303 K, 101.33 kPa, x1 = 0.6 | 2.013
303 K, 101.33 kPa, x1 = 0.7 | 2.186
303 K, 101.33 kPa, x1 = 0.8 | 2.342
303 K, 101.33 kPa, x1 = 0.9 | 2.751
303.15 K, 100 kPa, x1 = 0.1195 | 2.083
303.15 K, 100 kPa, x1 = 0.2339 | 1.951
303.15 K, 100 kPa, x1 = 0.3649 | 1.857
303.15 K, 100 kPa, x1 = 0.4693 | 1.843
303.15 K, 100 kPa, x1 = 0.5498 | 1.878
303.15 K, 100 kPa, x1 = 0.6658 | 1.994
303.15 K, 100 kPa, x1 = 0.7945 | 2.261
303.15 K, 100 kPa, x1 = 0.9166 | 2.647
303.15 K, 101 kPa, x1 = 0.09983 | 2.049
303.15 K, 101 kPa, x1 = 0.1935 | 1.965
303.15 K, 101 kPa, x1 = 0.3051 | 1.941
303.15 K, 101 kPa, x1 = 0.4055 | 1.965
303.15 K, 101 kPa, x1 = 0.4837 | 2.01
303.15 K, 101 kPa, x1 = 0.6005 | 2.13
303.15 K, 101 kPa, x1 = 0.6946 | 2.248
303.15 K, 101 kPa, x1 = 0.8028 | 2.468
303.15 K, 101 kPa, x1 = 0.8996 | 2.745
308.15 K, 101 kPa, x1 = 0.09983 | 1.8
308.15 K, 101 kPa, x1 = 0.1935 | 1.734
308.15 K, 101 kPa, x1 = 0.3051 | 1.703
308.15 K, 101 kPa, x1 = 0.4055 | 1.722
308.15 K, 101 kPa, x1 = 0.4837 | 1.77
308.15 K, 101 kPa, x1 = 0.6005 | 1.857
308.15 K, 101 kPa, x1 = 0.6946 | 1.971
308.15 K, 101 kPa, x1 = 0.8028 | 2.144
308.15 K, 101 kPa, x1 = 0.8996 | 2.375
313.15 K, 100 kPa, x1 = 0.1195 | 1.605
313.15 K, 100 kPa, x1 = 0.2339 | 1.484
313.15 K, 100 kPa, x1 = 0.3649 | 1.39
313.15 K, 100 kPa, x1 = 0.4693 | 1.364
313.15 K, 100 kPa, x1 = 0.5498 | 1.393
313.15 K, 100 kPa, x1 = 0.6658 | 1.492
313.15 K, 100 kPa, x1 = 0.7945 | 1.709
313.15 K, 100 kPa, x1 = 0.9166 | 2.027
313.15 K, 101 kPa, x1 = 0.09983 | 1.568
313.15 K, 101 kPa, x1 = 0.1935 | 1.5
313.15 K, 101 kPa, x1 = 0.3051 | 1.44
313.15 K, 101 kPa, x1 = 0.4055 | 1.468
313.15 K, 101 kPa, x1 = 0.4837 | 1.529
313.15 K, 101 kPa, x1 = 0.6005 | 1.613
313.15 K, 101 kPa, x1 = 0.6946 | 1.709
313.15 K, 101 kPa, x1 = 0.8028 | 1.861
313.15 K, 101 kPa, x1 = 0.8996 | 2.048

CCNCC + CCCCOCCO
viscosity [mPa·s], 100 kPa
Conditions | 298.15 K | 303.15 K | 308.15 K
x2 = 0.0499 | 0.35 | 0.335 | 0.31
x2 = 0.1001 | 0.417 | 0.391 | 0.368
x2 = 0.1508 | 0.485 | 0.45 | 0.423
x2 = 0.2001 | 0.561 | 0.523 | 0.492
x2 = 0.2997 | 0.758 | 0.693 | 0.647
x2 = 0.3995 | 1.028 | 0.933 | 0.865
x2 = 0.5 | 1.356 | 1.212 | 1.116
x2 = 0.5999 | 1.72 | 1.516 | 1.389
x2 = 0.7 | 2.083 | 1.832 | 1.673
x2 = 0.7999 | 2.407 | 2.101 | 1.913
x2 = 0.8997 | 2.662 | 2.319 | 2.1
x2 = 0.9495 | 2.769 | 2.415 | 2.181

Nc1ccccc1 + CCCCOCCO
viscosity [mPa·s]
Conditions | 298 K | 303 K | 303.15 K | 308 K | 313 K | 318 K
101 kPa, x1 = 0.138 | – | – | 2.999 | – | – | –
101 kPa, x1 = 0.2648 | – | – | 3.156 | – | – | –
101 kPa, x1 = 0.3818 | – | – | 3.287 | – | – | –
101 kPa, x1 = 0.49 | – | – | 3.4 | – | – | –
101 kPa, x1 = 0.5903 | – | – | 3.486 | – | – | –
101 kPa, x1 = 0.6837 | – | – | 3.553 | – | – | –
101 kPa, x1 = 0.7708 | – | – | 3.614 | – | – | –
101 kPa, x1 = 0.8522 | – | – | 3.666 | – | – | –
101 kPa, x1 = 0.9284 | – | – | 3.707 | – | – | –
101.3 kPa, x2 = 0.0995 | 3.539 | 2.974 | – | 2.573 | 2.238 | 1.967
101.3 kPa, x2 = 0.1968 | 3.471 | 2.915 | – | 2.528 | 2.189 | 1.929
101.3 kPa, x2 = 0.2548 | 3.448 | 2.887 | – | 2.512 | 2.184 | 1.922
101.3 kPa, x2 = 0.3024 | 3.429 | 2.886 | – | 2.507 | 2.16 | 1.905
101.3 kPa, x2 = 0.3953 | 3.397 | 2.86 | – | 2.482 | 2.145 | 1.893
101.3 kPa, x2 = 0.4355 | 3.39 | 2.854 | – | 2.477 | 2.143 | 1.892
101.3 kPa, x2 = 0.5146 | 3.35 | 2.833 | – | 2.463 | 2.123 | 1.875
101.3 kPa, x2 = 0.5909 | 3.31 | 2.805 | – | 2.438 | 2.108 | 1.856
101.3 kPa, x2 = 0.6936 | 3.219 | 2.731 | – | 2.381 | 2.07 | 1.827
101.3 kPa, x2 = 0.8002 | 3.1 | 2.588 | – | 2.332 | 2.02 | 1.787
101.3 kPa, x2 = 0.8933 | 2.974 | 2.545 | – | 2.259 | 1.962 | 1.742

CCNCC + CCCCOCCOCCO
viscosity [mPa·s], 100 kPa
Conditions | 298.15 K | 303.15 K | 308.15 K
x2 = 0.05043 | 0.3695 | 0.3487 | 0.3286
x2 = 0.09991 | 0.457 | 0.4294 | 0.4036
x2 = 0.1494 | 0.5594 | 0.5411 | 0.4914
x2 = 0.2 | 0.699 | 0.6487 | 0.6022
x2 = 0.3 | 1.062 | 0.9662 | 0.8961
x2 = 0.4001 | 1.56 | 1.376 | 1.288
x2 = 0.5 | 2.156 | 1.896 | 1.722
x2 = 0.6 | 2.817 | 2.45 | 2.215
x2 = 0.6997 | 3.484 | 3.007 | 2.686
x2 = 0.7998 | 4.107 | 3.511 | 3.132
x2 = 0.9 | 4.667 | 3.966 | 3.532
x2 = 0.9491 | 4.904 | 4.167 | 3.705

CN(CCO)CCO + CCCCn1cc[n+](C)c1.F[B-](F)(F)F
Conditions | viscosity [mPa·s]
323.15 K, 101 kPa, x2 = 0.6997 | 20.65

COCCOCCOCCO + CCCN
298.15 K, 101 kPa
Conditions | viscosity [mPa·s]
x1 = 0.0053 | 0.369
x1 = 0.0087 | 0.378
x1 = 0.0251 | 0.415
x1 = 0.0368 | 0.44
x1 = 0.068 | 0.514
x1 = 0.081 | 0.549
x1 = 0.105 | 0.617
x1 = 0.1254 | 0.682
x1 = 0.1752 | 0.861
x1 = 0.2146 | 1.034
x1 = 0.2627 | 1.279
x1 = 0.2934 | 1.456
x1 = 0.3347 | 1.724
x1 = 0.3651 | 1.935
x1 = 0.4217 | 2.362
x1 = 0.471 | 2.749
x1 = 0.5445 | 3.35
x1 = 0.574 | 3.599
x1 = 0.6281 | 4.032
x1 = 0.6683 | 4.359
x1 = 0.7088 | 4.66
x1 = 0.7716 | 5.104
x1 = 0.812 | 5.359
x1 = 0.8595 | 5.626
x1 = 0.8867 | 5.774
x1 = 0.9185 | 5.92

C[NH+](CCO)CCO.O=C[O-] + CCCO
viscosity [mPa·s], 101 kPa
Conditions | 293.15 K | 303.15 K | 313.15 K | 323.15 K
x1 = 0.0561 | 29.65 | 17.05 | 8.082 | 5.559
x1 = 0.1033 | 51.95 | 25.07 | 13.55 | 9.307
x1 = 0.1976 | 99.81 | 47.76 | 25.74 | 17.6
x1 = 0.3071 | 159.4 | 78.44 | 41.48 | 28.28
x1 = 0.4049 | 216.8 | 106.9 | 57.05 | 38.83
x1 = 0.5231 | 293.9 | 143.5 | 78.48 | 53.2
x1 = 0.6246 | 369.5 | 179.8 | 99.71 | 67.21
x1 = 0.7259 | 455.1 | 222.6 | 123.6 | 82.66
x1 = 0.8079 | 531.2 | 261.8 | 144.3 | 95.86
x1 = 0.9055 | 627 | 310.4 | 169 | 111.4
x1 = 0.9558 | 671.4 | 331.9 | 180.4 | 118.7

Oc1ccc2ccccc2c1 + CCCO
viscosity [mPa·s], 101 kPa
Conditions | x1 = 0.04 | x1 = 0.08 | x1 = 0.12 | x1 = 0.16 | x1 = 0.2
293.15 K | 2.6 | 3.004 | 3.529 | 4.172 | 4.954
303.15 K | 2.025 | 2.288 | 2.658 | 3.1 | 3.63
313.15 K | 1.635 | 1.803 | 2.062 | 2.37 | 2.764
323.15 K | 1.326 | 1.447 | 1.636 | 1.869 | 2.168
